Results: patent US20250388589A1, “TRICYCLIC HETEROCYCLIC DERIVATIVES, COMPOSITIONS AND USES THEREOF” (Danatlas Pharmaceuticals Co., Ltd., priority 2022, published 2025)

Tests used:
Kuramochi cell line = assay: Cell Viability Assay (Cell Titer-Glo, 7 days); format: cell-based; details: 168 h, Kuramochi cells, 7 days incubation, read-out: PARG Cell viability (IC50)
Procedure: Cell viability studies were conducted in Kuramochi cell line. Cells were maintained in RPMI (Hyclone, Catalog #: SH3080901B) supplemented with 10% v/v FBS (AusGeneX, Catalog #: FBS500-S), 1% v/v Penicillin Streptomycin (Gibco, Catalog #: 15140122). Cells were seeded in 96-well plates (PerkinElmer, Catalog #: 6005680) at a density of 400 cells/well. Compounds dissolved in DMSO were plated in duplicate using a multichannel pipette, and tested on a 9-point 3-fold serial dilution. Cells were incubated for 7 days in a 37° C. active humidified incubator at 5% CO2. Cell viability was measured using the Cell Titer-Glo reagent (Promega, Catalog #: G7573) as manufacturer's instructions. Luminescence signal was measured with a multimode plate reader (Perkin Elmer, Envision 2105 or BMG, ClarioStar Plus). Average values of DMSO treated wells in a plate was calculated and as high control (HC). Average values of only medium in a plate was calculated and as low control (LC)
(§1) IC50 values were determined by fitting the data to the standard 4 parameters with Hill Slope using GraphPad Prism software.

[1] = biological target: hPARG (C-terminal His6-tag) (Homo sapiens (Human), UniProt Q86W56); assay: PARG Enzymatic Activity Assay (HTRF); format: biochemical; details: hPARG 65 pM final, biotinylated-NAD ribosylated PARP1 8 nM final
Sequence of hPARG (C-terminal His6-tag) (Q86W56 whole entry): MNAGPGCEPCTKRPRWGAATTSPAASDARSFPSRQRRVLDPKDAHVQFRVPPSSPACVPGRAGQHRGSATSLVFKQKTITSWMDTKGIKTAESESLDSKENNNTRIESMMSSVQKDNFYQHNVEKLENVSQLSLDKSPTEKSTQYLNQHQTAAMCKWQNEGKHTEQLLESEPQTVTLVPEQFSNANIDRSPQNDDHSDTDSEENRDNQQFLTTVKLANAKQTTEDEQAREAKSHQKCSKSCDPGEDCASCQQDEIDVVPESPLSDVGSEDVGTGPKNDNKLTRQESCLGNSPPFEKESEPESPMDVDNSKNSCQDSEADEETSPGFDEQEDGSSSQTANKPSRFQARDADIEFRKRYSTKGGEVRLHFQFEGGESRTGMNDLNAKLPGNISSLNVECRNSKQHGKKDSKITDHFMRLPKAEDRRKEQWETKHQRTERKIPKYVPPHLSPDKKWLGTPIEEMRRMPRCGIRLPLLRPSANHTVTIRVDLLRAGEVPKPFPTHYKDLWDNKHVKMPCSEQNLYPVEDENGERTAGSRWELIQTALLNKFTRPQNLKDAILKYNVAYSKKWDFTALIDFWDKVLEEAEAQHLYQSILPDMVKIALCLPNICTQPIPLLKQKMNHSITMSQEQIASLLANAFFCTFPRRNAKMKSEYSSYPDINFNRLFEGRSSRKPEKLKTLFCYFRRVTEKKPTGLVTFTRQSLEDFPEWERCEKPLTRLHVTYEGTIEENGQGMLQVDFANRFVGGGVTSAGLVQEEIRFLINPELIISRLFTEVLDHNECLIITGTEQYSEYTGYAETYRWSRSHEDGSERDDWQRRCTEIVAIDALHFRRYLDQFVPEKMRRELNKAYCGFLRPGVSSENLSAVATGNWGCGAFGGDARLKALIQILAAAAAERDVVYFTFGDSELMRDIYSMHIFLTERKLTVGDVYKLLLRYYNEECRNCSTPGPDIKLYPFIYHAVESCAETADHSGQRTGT
Procedure: PARG Enzymatic Activity Assay HTRF assay was used to measure the ability of compounds to inhibit the activity of PARG in vitro. C-terminal His6-tag PARG expressed in E. coli was purified and stored at −80° C. in aliquots. Assay measurements were performed with 1×buffer comprising 50 mM Tris pH 7.4, 0.1 mg/mL BSA, 3 mM EDTA, 0.4 mM EGTA, 1 mM DTT, 50 mM KCl and 0.01% Tween 20.
Compounds dissolved in DMSO were plated into a 384-well assay plate (PerkinElmer, Catalog #: 6008280) in duplicate using a dispenser (Labcyte, Echo 665), and tested on a 10-point 4-fold serial dilution. Add 5 L Enzyme mix [hPARG (C-terminal His6-tag, 4.2 μM), 65 pM final] to the test wells. The plates were covered and left to incubate for 60 minutes at RT before the addition of 5 L substrate mix [biotinylated-NAD ribosylated PARP1 (6.1 μM), 8 nM final] to initiate reaction. After incubating 10 minutes at RT, add 2.5 L Streptavidin-Eu cryptate (Cisbio, Catalog #: 610SAKLA) and 2.5 L Mab anti 6HIS-XL665 (Cisbio, Catalog #: 61HISXLA) to the plate, and incubate for 60 minutes at RT. Read on a multimode plate reader (PerkinElmer, Envision 2015) in time-resolved fluorescence (TRF) mode, with excitation at 337 nm and emission at both 620 nm and 665 nm. Average HTRF signal of high control (Wells with 1% DMSO) was calculated and as Vehicle Control (VC). Average HTRF signal of low control (no Enzyme) was calculated and as Positive control (PC).
as §1

Compound | IC50 (Kuramochi cell line) [nM] | IC50 [1] [nM]
N#CC1(NS(=O)(=O)c2ccc3c4c(C5=CCC(O)CC5)ncnc4n(-c4nnc(C(F)F)s4)c3c2)CC1 (stereo not drawn) [Example 84, N-(1-Cyanocyclopropyl)-9-(5-(difluoromethyl)-1,3,4-thiadiazol-2-yl)-4-(4-hydroxycyclohex-1-en-1-yl)-9H-pyrimido[4,5-b]indole-7-sulfonamide] | < 100 | < 100
N#CC1(NS(=O)(=O)c2ccc3c4c(C5CCNCC5)ncnc4n(-c4nnc(C(F)F)s4)c3c2)CC1 [Example 87, N-(1-Cyanocyclopropyl)-9-(5-(difluoromethyl)-1,3,4-thiadiazol-2-yl)-4-(piperidin-4-yl)-9H-pyrimido[4,5-b]indole-7-sulfonamide] | 100 to 1000 | < 100
CC(C)C(=O)N1CCN(c2ncnc3c2c2ccc(S(=O)(=O)NC4(C#N)CC4)cc2n3-c2nnc(C(F)F)s2)C[C@@H]1CO [Example 154, (R)—N-(1-Cyanocyclopropyl)-9-(5-(difluoromethyl)-1,3,4-thiadiazol-2-yl)-4-(3-(hydroxymethyl)-4-isobutyrylpiperazin-1-yl)-9H-pyrimido[4,5-b]indole-7-sulfonamide] | < 100 | < 100
N#CC1(NS(=O)(=O)c2ccc3c4c(N5CC6CN(C(=O)C7COC7)CC6C5)ncnc4n(-c4nnc(C(F)F)s4)c3c2)CC1 (stereo not drawn) [Example 71, N-(1-Cyanocyclopropyl)-9-(5-(difluoromethyl)-1,3,4-thiadiazol-2-yl)-4-(5-(oxetane-3-carbonyl)hexahydropyrrolo[3,4-c]pyrrol-2(1H)-yl)-9H-pyrimido[4,5-b]indole-7-sulfonamide] | 100 to 1000 | < 100
CC(C)C(=O)N1CC=C(c2ncnc3c2c2cc(F)c(S(=O)(=O)NC4(C#N)CC4)cc2n3-c2nnc(C(F)F)s2)CC1 [Example 91, N-(1-Cyanocyclopropyl)-9-(5-(difluoromethyl)-1,3,4-thiadiazol-2-yl)-6-fluoro-4-(1-isobutyryl-1,2,3,6-tetrahydropyridin-4-yl)-9H-pyrimido[4,5-b]indole-7-sulfonamide] | < 100 | < 100
N#CC1(NS(=O)(=O)c2ccc3c4c(C5CCN(C(=O)N6CCCO6)CC5)ncnc4n(-c4nnc(C(F)F)s4)c3c2)CC1 [Example 139] | < 100 | < 100
N#CC1(NS(=O)(=O)c2ccc3c4c(N5CCCOCC5)ncnc4n(-c4nnc(C(F)F)s4)c3c2)CC1 [Example 170, N-(1-Cyanocyclopropyl)-9-(5-(difluoromethyl)-1,3,4-thiadiazol-2-yl)-4-(1,4-oxazepan-4-yl)-9H-pyrimido[4,5-b]indole-7-sulfonamide] | < 100 | < 100
CN1CC=C(c2ncnc3c2c2ccc(S(=O)(=O)NC4(C#N)CC4)cc2n3-c2nnc(C(F)F)s2)CC1 [Example 77, N-(1-Cyanocyclopropyl)-9-(5-(difluoromethyl)-1,3,4-thiadiazol-2-yl)-4-(1-methyl-1,2,3,6-tetrahydropyridin-4-yl)-9H-pyrimido[4,5-b]indole-7-sulfonamide] | < 100 | < 100
CC(C)C(=O)N1C[C@H]2CC[C@@H]1CN2c1ncnc2c1c1ccc(S(=O)(=O)NC3(C#N)CC3)cc1n2-c1nnc(C(F)F)s1 [Example 32, N-(1-Cyanocyclopropyl)-9-(5-(difluoromethyl)-1,3,4-thiadiazol-2-yl)-4-((1R,4R)-5-isobutyryl-2,5-diazabicyclo[2.2.2]octan-2-yl)-9H-pyrimido[4,5-b]indole-7-sulfonamide] | 100 to 1000 | 
N#CC1(NS(=O)(=O)c2ccc3c4c(N5CCN(C(=O)c6ccccn6)CC5)ncnc4n(-c4nnc(C(F)F)s4)c3c2)CC1 [Example 14, N-(1-Cyanocyclopropyl)-9-(5-(difluoromethyl)-1,3,4-thiadiazol-2-yl)-4-(4-picolinoylpiperazin-1-yl)-9H-pyrimido[4,5-b]indole-7-sulfonamide] | < 100 | 
